These results are taken from patent US20240226234A1, “WNT5A PEPTIDES FOR THE TREATMENT OF ACUTE M[…]” (W[…], priority 2021, published 2024).

Holding throughout (assay type): cell-based, human
For experiment [1], the system named is KG1a cells. Kind of experiment: Cell growth assay, KG1a cells. The following applies: Foxy-5 100 μM, 72 h. As to the method: (§1) A panel of human myeloid leukemia cell lines (HL60, K562, KG1a, THP1 and U937) and HS-5 mesenchymal stromal cells lineage were cultured in Roswell Park Memorial Institute medium-1640 (RPMI; Sigma) containing 10% Fetal Bovine Serum (Gibco), glutamine (2 mM; Sigma), penicillin (100 μg/mL; Sigma), streptomycin (100 μg/mL; Sigma), and amphotericin B (0.25 μg/mL; Gibco). The cells were maintained in a humidified atmosphere at 37° C. and 5% CO2 and the experiments were performed when they reached exponential growth. For the assays, cells were seeded on a 24-well plate and treated or not with Foxy-5 for 72 hours.
Cells treated with Foxy or with vehicle were collected and cell number was evaluated by manual counting in monoculture and by microscopy with Image J software analysis in 2D culture.
Next, we evaluated the proliferation rates since this process is modulated by ROS. We treated the cells with Foxy-5 (100 μM) or with vehicle (DMSO) during 72 hours, and then cell growth was analyzed by counting the cells in monoculture, manually, or by the Image J software analysis of the 2D cultures. […] Similar results were obtained in the 2D culture system using leukemia cells and HS-5 mesenchymal stromal cells.

The test system of experiment [2] is THP1 cells. In words: Transwell chemotaxis assay toward CXCL12, THP1 cells. The following applies: THP1, Foxy-5 100 μM 72 h pretreatment, CXCL12 100 ng/mL, 24 h. On the procedure:
(§2) Leukemic cell lines, pretreated or not with Foxy-5 (72 hours of stimulation) were tested for chemotaxis in Transwell-based assays for Chemotaxis (6.5 mm diameter, 8 μm pore size; Corning). Polycarbonate membranes were incubated with poly-L-lysine (1 mg/mL) for 1 hour at 37° C. followed by saline buffer washing. Briefly, cells were collected, washed with media containing bovine serum albumin (0.1% BSA; Sigma), and then seeded at a density of 5×10^5 cells into the upper chamber of the transwell. The lower chamber was filled with media containing 0.5% BSA (negative control), media containing 10% FBS (positive control) and media 5 containing 0.5% BSA with CXCL12 (100 ng/ml; Peprotech) (Melo et al., 2014). Following 6 h or 24 h of incubation at 37° C., cells that migrated into the lower chamber were collected, centrifuged, resuspended in saline buffer and counted. The number of migrated cells was expressed as a percentage of the input, i.e., the cells number applied directly to the lower compartment in parallel wells. The migration of cells was normalized to 100%+/−standard deviation (SD) of triplicates (Favaro et al., 2013).
(§3) We investigated whether restoring of WNT5A could enable the modulation CXCL12-induced chemotaxis of leukemia cells. […]

Experiment [3] concerns U937 cells. Kind of experiment: Actin polymerization assay, U937 cells. The following applies: U937, Foxy-5 100 μM 72 h. As to the method: (§4) F-actin polymerization was analyzed in treated leukemic cell lines using AlexaFluor 633-labeled phalloidin (A22284, Invitrogen) before and after CXCL12 stimulation. The cells were stimulated with CXCL12 (300 ng/ml; Peprotech) in serum-free media at 37 °C for 30 and 120 seconds. The reaction was stopped by adding 3 volumes of paraformaldehyde (3.7%) at room temperature for 10 min, then washed and permeabilized on ice. Cells were stained with 633-phalloidin (2 mg/mL). Flow cytometric data were analyzed using a FACS flow cytometer (BD) followed by FlowJo software analysis. The F-actin content obtained were normalized calculating the ratio between each stimulated cells-mean fluorescence intensity (MFI) values and the nonstimulated cells MFI from the basal levels of the control cells and expressed as fold change.
(§5) Therefore, we performed a flow cytometry analysis to evaluate whether Foxy-5 treatment would be able to disrupt actin polymerization. Leukemia cell lines were treated with Foxy-5 (100 μM) or vehicle during 72 hours, stimulated with CXCL12 (300 ng/ml) for 30 or 120 seconds, and stained with […] for detection of actin polymerization by flow cytometry. […] Thus, a significant reduction of actin polymerization was shown after Foxy-5 treatment when compared to untreated cells after 30 seconds of CXCL12 induction (P<. 001).

The subject of experiment [4] is THP1 cells. Kind of experiment: Actin polymerization assay, THP1 cells. The settings on record: THP1, Foxy-5 100 μM 72 h. As to the method: as §4, §5
Experiment [5] concerns U937 cells. In words: Autophagy assay (acridine orange), U937 cells. The following applies: U937, 2D culture, 72 h. As to the method:
as §1
Cells treated with Foxy or with vehicle were collected and acids vesicles were measured by flow cytometry following staining with Acridine Orange (0.01 mg/mL; Sigma). Acquisition of cells was performed on a FACScalibur flow cytometer (BD) and analysis was carried out using the FlowJo software 4.
As autophagy is required for sustaining leukemia cell growth by induction of ROS production, we measured the levels of acidic granule formation by flow cytometry after Foxy-5 or vehicle treatment. […]

Experiment [6] relates to U937 cells. In words: Transwell chemotaxis assay toward CXCL12, U937 cells. The settings on record: U937, Foxy-5 100 μM 72 h pretreatment, CXCL12 100 ng/mL, 24 h. As to the method:
as §2, §3

Experiment [7] concerns HL60 cells. Kind of experiment: Actin polymerization assay, HL60 cells. The following applies: HL60, Foxy-5 100 μM 72 h. On the procedure: as §4, §5
Where [8] appears, read: CXCL12 300 ng/ml for 30 seconds.
Setting [9] is: CXCL12 300 ng/ml for 120 seconds.

No end group written: not given here. *: point of attachment. For = O=C*

Regarding “Foxy-5: Formylated hexapeptide fragment of WNT5A: MDGCEL (SEQ. ID. NO. 3) with methionine in position 1 as N-formyl methionine; WNT5A-mimicking compound (For-MDGCEL; listed as Homo sapiens)”, the “reduced cell growth compared to vehicle treated cells” value in experiment [1] (2D culture with HS-5 stromal cells) came out at 2.63 fold decrease; in experiment [1] (monoculture), 1.37 fold decrease. The “CXCL12-induced chemotaxis (migrated cells as percentage of the input, average)” value in experiment [2] amounted to 11.17%; in experiment [6], 40.35%. In addition, the “F-actin content following CXCL12 stimulation” value in experiment [3] (setting [8]) was 3.03 fold increase; in experiment [3] (setting [9]), 1.26 fold; in experiment [4] (setting [8]) it was 3.56 fold increase; in experiment [4] (setting [9]) it was 1.59 fold; in experiment [7] (setting [8]), 1.14 fold increase; in experiment [7] (setting [9]), 1.07 fold increase. Also, the “autophagy (acidic granule formation, acridine orange, average)” value was 9.40 (range 7.68-11.00) MFI in experiment [5] (Foxy-5 50 μM) and 6.30 (range 4.80-8.31) MFI in experiment [5] (Foxy-5 100 μM).
